Test results taken from patent publication US4122199A, “Amides of pyrrolidinoethylamine which can be used in treatment of coughs” (Pierre Fabre S.A., priority 1976, dated 1978).
Structures can show the parent of a compound that is named as a salt. Where two headings read alike, the source gives them in different places.

How the values were obtained:
[1] = Solubility characteristics; format: physicochemical
in vivo = conditions: mouse, in vivo, mice, isotonic aqueous solution
Description: It is determined on mice, the products being administered orally, intraperitoneally, and intraveneously in isotonic aqueous solution.

guinea pigs = assay: Citric acid aerosol method on guinea pigs (antitussive); format: in vivo; conditions: orally, citric acid aerosol
Description: The animals were subjected to a 20% citric acid aerosol for 15 minutes.
The coughs were recorded by a microphone.
The products were administered intraperitoneally 20 minutes before the exposure to the aerosol.
Some derivatives were also tested orally.

[2] = Hygroscopicity of crystals; format: physicochemical

CCC(C(=O)NCCN1CCCC1)c1ccccc1 (stereo not drawn) [F 1419, N(2'-pyrrolidino-ethyl)-α-phenyl-α-ethyl acetamide hydrochloride]
Solubility in N-methyl pyrrolidone ([1]; N-methyl pyrrolidone, % soluble): 7%
Solubility in ethanol ([1]; ethanol, % soluble): 15%
Solubility in ether ([1]; ether, in words): insoluble
Solubility in propylene glycol ([1]; propylene glycol, % soluble): 25%
Solubility in water ([1]; water, in words): very soluble
LD50 (in vivo; ip, intraperitoneal, read-out: DL 50 intraperitoneal): 200 mg/kg
LD50 (in vivo; iv, intravenous, read-out: DL 50 intravenous): 76 mg/kg
LD50 (in vivo; po, oral, read-out: DL 50 oral): 660 mg/kg
% decrease in no. coughs in 15 mins. (guinea pigs; 50 mg/kg): -22
% decrease in no. coughs in 15 mins. (guinea pigs; 100 mg/kg): -40
Hygroscopicity [2]: slightly hygroscopic
